Results taken from patent publication US6479517B1, “Phosphorous-containing benzothiophenes” (Eli Lilly and Company, priority 1995, dated 2002).

Columns and labels:
[1] = tested on: Uterine Eosinophil Peroxidase (EPO); assay: Uterine Eosinophil Peroxidase (EPO) Assay; assay type: in vivo, rat; conditions: stromal layer of ovariectomized rats
[2] = tested on: ovariectomized rats; assay: Serum cholesterol in ovariectomized rat post-menopausal model; assay type: in vivo; conditions: OVX Sprague Dawley rats, oral, daily for 4 days
Method: (§1) In the examples illustrating the methods, a post-menopausal model was used in which effects of different treatments upon circulating lipids were determined.
(§2) Seventy-five day old female Sprague Dawley rats (weight range of 200 to 225g) were obtained from Charles River Laboratories (Portage, Mich.). The animals were either bilaterally ovariectomized (OVX) or exposed to a Sham surgical procedure at Charles River Laboratories, and then shipped after one week. Upon arrival, they were housed in metal hanging cages in groups of 3 or 4 per cage and had ad libitum access to food (calcium content approximately 0.5%) and water for one week. Room temperature was maintained at 22.20°±1.7° C. with a minimum relative humidity of 40%. The photoperiod in the room was 12 hours light and 12 hours dark.
(§3) Dosing Regimen Tissue Collection. After a one week acclimation period (therefore, two weeks post-OVX) daily dosing with test compound was initiated. 17α-ethynyl estradiol or the test compound were given orally, unless otherwise stated, as a suspension in 1% carboxymethylcellulose or dissolved in 20% cyclodextrin. Animals were dosed daily for 4 days. Following the dosing regimen, animals were weighed and anesthetized with a ketamine: xylazine (2:1, V:V) mixture and a blood sample was collected by cardiac puncture. The animals were then sacrificed by asphyxiation with CO2, the uterus was removed through a midline incision, and a wet uterine weight was determined.
Cholesterol Analysis. Blood samples were allowed to clot at room temperature for 2 hours, and serum was obtained following centrifugation for 10 minutes at 3000 rpm. Serum cholesterol was determined using a Boehringer Mannheim Diagnostics high performance cholesterol assay. Briefly the cholesterol was oxidized to cholest-4-en-3-one and hydrogen peroxide. The hydrogen peroxide was then reacted with phenol and 4-aminophenazone in the presence of peroxidase to produce a p-quinone imine dye, which was read spectrophotemetrically at 500 nm. Cholesterol concentration was then calculated against a standard curve. The entire assay was automated using a Biomek Automated Workstation.

[3] = tested on: Uterine Eosinophil Peroxidase (EPO); assay: Uterine Eosinophil Peroxidase (EPO) Assay; assay type: in vivo, rat
Source text: as §2, §3
Uterine Eosinophil Peroxidase (EPO) Assay. Uteri were kept at 4° C. until time of enzymatic analysis. The uteri were then homogenized in 50 volumes of 50 mM Tris buffer (pH—8.0) containing 0.005% Triton X-100. Upon addition of 0.01% hydrogen peroxide and 10 mM O-phenylenediamine (final concentrations) in Tris buffer, increase in absorbance was monitored for one minute at 450 nm. The presence of eosonophils in the uterus is an indication of estrogenic activity of a compound. The maximal velocity of a 15 second interval was determined over the initial, linear portion of the reaction curve.

[4] = tested on: ovariectomized rats; assay: Uterine weight in ovariectomized rat post-menopausal model (4-day dosing); assay type: in vivo; conditions: for Uterine Weight (% increase vs. OVX): OVX Sprague Dawley rats, oral, daily for 4 days
Method: as §1, §2, §3

[5] = tested on: MCF-7 breast adenocarcinoma cells; assay: MCF-7 Proliferation Assay; assay type: cell-based; conditions: Homo sapiens, MCF7; MCF-7 cells, 48 hours with drug, 4 hours thymidine pulse; read-out: IC50 (MCF-7 proliferation, tritiated thymidine)
Method: MCF-7 breast adenocarcinoma cells (ATCC HTB 22) were maintained in MEM (minimal essential medium, phenol red-free, Sigma, St. Louis, Mo.) supplimented with 10% fetal bovine serum (FBS) (V/V), L-glutamine (2 mM), sodium pyruvate (1 mM), HEPES {(N-[2-hydroxyethyl]piperazine-N′-[2-ethanesulfonic acid]10 mM}, non-essential amino acids and bovine insulin (1 ug/mL) (maintenance medium). Ten days prior to assay, MCF-7 cells were switched to maintenance medium supplemented with 10% dextran coated charcoal stripped fetal bovine serum (DCC-FBS) assay medium) in place of 10% FBS to deplete internal stores of steroids. MCF-7 cells were removed from maintenance flasks using cell dissociation medium (Ca++/Mg++ free HBSS (phenol red-free) supplemented with 10 mM HEPES and 2 mM EDTA). Cells were washed twice with assay medium and adjusted to 80,000 cells/ML. Approximately 100 μL (8,000 cells) were added to flat-bottom microculture wells (Costar 3596) and incubated at 37° C. in a 5% CO2 humidified incubator for 48 hours to allow for cell adherence and equilibration after transfer. Serial dilutions of drugs or DMSO as a diluent control were prepared in assay medium and 50 μL transferred to triplicate microcultures followed by 50 μL assay medium for a final volume of 200 μL. After an additional 48 hours at 37° C. in a 5% CO2 humidified incubator, microcultures were pulsed with tritiated thymidine (1 uCi/well) for 4 hours. Cultures were terminated by freezing at −70° C. for 24 hours followed by thawing and harvesting of microcultures using a Skatron Semiautomatic Cell Harvester. Samples were counted by liquid scintillation using a Wallac BetaPlace β counter. Results in Table 2 below show the ED50 for certain compounds of the present invention.

[6] = OVX Sprague Dawley rats, oral, daily for 4 days, dose 0.1 mg/kg
[7] = OVX Sprague Dawley rats, oral, daily for 4 days, dose 0.01 mg/kg
[8] = OVX Sprague Dawley rats, oral, daily for 4 days, dose 1.0 mg/kg

Row | SMILES | Eosinophil infiltration into the uterus (in words) [1] | Serum Cholesterol (% decrease vs. OVX) ([2]; dose 0.1 mg/kg) [%] | Uterine EPO (V. max) [3, 6] | Uterine Weight (% increase vs. OVX) ([4]; dose 0.1 mg/kg) [%] | Effect on uterine weight (in words) ([4]; compared to ovariectomized test animals, EE2 orally at 0.1 mg/kg/day) | Serum Cholesterol (% decrease vs. OVX) ([2]; dose 0.01 mg/kg) [%] | Serum Cholesterol (% decrease vs. OVX) ([2]; dose 1.0 mg/kg) [%] | Uterine EPO (V. max) [3, 7] | Uterine EPO (V. max) [3, 8] | Uterine Weight (% increase vs. OVX) ([4]; dose 0.01 mg/kg) [%] | Uterine Weight (% increase vs. OVX) ([4]; dose 1.0 mg/kg) [%] | IC50 [5] [nM] | Uterine EPO (V. max) ([3]; rat, in vivo, po, 0.01 mg/kg) | Uterine EPO (V. max) ([3]; rat, in vivo, po, 0.1 mg/kg) | Uterine EPO (V. max) ([3]; rat, in vivo, po, 1 mg/kg)
1 | C#C[C@]1(O)CC[C@H]2[C@@H]3CCc4cc(O)ccc4[C@H]3CC[C@@]21C [EE2, 17α-ethynyl estradiol, reference compound] | substantial, expected increase in eosinophil infiltration | 85.9 | 109.3 | 171.5 | substantially greater than the uterine weight of ovariectomized test animals |  |  |  |  |  |  |  |  |  | 
2 | CCOP(=O)(OCC)Oc1ccc(-c2sc3cc(OP(=O)(OCC)OCC)ccc3c2C(=O)c2ccc(OCCN3CCCCC3)cc2)cc1.Cl [Example 1] |  | 41.1 | 6.5 | 25.2 |  | 24.3 | 17.4 | 0.68 | 5.8 | 51.5 | 37.0 | 1 |  |  | 
3 | Cl.O=C(c1ccc(OCCN2CCCCC2)cc1)c1c(-c2ccc(OP(=O)(Oc3ccccc3)Oc3ccccc3)cc2)sc2cc(OP(=O)(Oc3ccccc3)Oc3ccccc3)ccc12 [Example 2] |  | 15.6 | 9.8 | 12.4 |  | −48.2 | 55.2 | 4 | 5.6 | 17.4 | 31.4 | 10 |  |  | 
4 | Cl.O=C(c1ccc(OCCN2CCCCC2)cc1)c1c(-c2ccc(OP(=O)(c3ccccc3)c3ccccc3)cc2)sc2cc(OP(=O)(c3ccccc3)c3ccccc3)ccc12 [Example 3] |  | 37.6 | 7 | 47.1 |  | −25 | 57.5 | 3.7 | 6.7 | 22.5 | 24.7 | 1 |  |  | 
5 | Cl.O=C(c1ccc(OCCN2CCCCC2)cc1)c1c(-c2ccc(O)cc2)sc2cc(O)ccc12 [Raloxifene, 6-hydroxy-2-(4-hydroxyphenyl)-3-[4-(2-piperidinoethoxy)benzoyl]benzo[b]thiophene, hydrochloride, reference compound] |  | 75.6 |  |  |  | 65 | 71.1 |  |  |  |  |  | 2.2 | 4.3 | 3.9
